Data reported in US6737383B1, “Herbicidal oxadiazolidines” (priority 1999, dated 2004).

Assays:
pigweed = test: Test B pre/postemergence pigweed; assay type: in vivo, Amaranthus retroflexus; settings: for Plant response rating, Redroot pigweed: Postemergence
In short: (§1)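 Response is a visual 0-to-10 score relative to untreated plants, where 0 means no effect and 10 means complete control, taken twelve to sixteen days after application. Treatments went onto soil at planting and onto foliage of 1- to 4-leaf plants, using a surfactant-containing non-phytotoxic solvent.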

blackgrass = test: Test B pre/postemergence blackgrass; assay type: in vivo, Alopecurus myosuroides
In short: as §1

purple nutsedge = test: Test B pre/postemergence purple nutsedge; assay type: in vivo, Cyperus rotundus
In short: as §1

soybean = test: Test B pre/postemergence soybean; assay type: in vivo, Glycine max; settings: for Plant response rating, Soybean: Postemergence
In short: as §1

corn = test: Test B pre/postemergence corn; assay type: in vivo, Zea mays
In short: as §1

giant foxtail = test: Test B pre/postemergence giant foxtail; assay type: in vivo, Setaria faberii
In short: as §1

wild oat = test: Test B pre/postemergence wild oat; assay type: in vivo, Avena fatua; settings: for Plant response rating, Wild oats: Postemergence
In short: as §1

surinam grass = test: Test B pre/postemergence surinam grass; assay type: in vivo, Brachiaria decumbens
In short: as §1

rape = test: Test B pre/postemergence rape; assay type: in vivo, Brassica napus
In short: as §1

crabgrass = test: Test B pre/postemergence crabgrass; assay type: in vivo, Digitaria sanguinalis
In short: as §1

sugar beet = test: Test B pre/postemergence sugar beet; assay type: in vivo, Beta vulgaris; settings: for Plant response rating, Sugarbeets: Postemergence
In short: as §1

cocklebur = test: Test B pre/postemergence cocklebur; assay type: in vivo, Xanthium strumarium
In short: as §1

bedstraw = test: Test B pre/postemergence bedstraw; assay type: in vivo, Galium aparine; settings: Preemergence
In short: as §1

morningglory = test: Test B pre/postemergence morningglory; assay type: in vivo, Ipomoea hederacea
In short: as §1

velvetleaf = test: Test B pre/postemergence velvetleaf; assay type: in vivo, Abutilon theophrasti; settings: for Plant response rating, Velvetleaf: Postemergence
In short: as §1

wheat = test: Test B pre/postemergence wheat; assay type: in vivo, Triticum aestivum; settings: for Plant response rating, Wheat: Postemergence
In short: as §1

[1] = Rate 500 g/ha, scale of 0 to 10 where 0 is no effect and 10 is complete control
[2] = Preemergence, Rate 62 g/ha, scale 0 to 10 (0 no effect, 10 complete control)
[3] = Preemergence, Rate 125 g/ha, scale 0 to 10, 0 is no effect, 10 is complete control
[4] = Preemergence, Rate 500 g/ha, scale of 0 to 10 where 0 is no effect and 10 is complete control
[5] = Rate 250 g/ha, scale of 0 to 10 where 0 is no effect and 10 is complete control
[6] = Postemergence, Rate 62 g/ha, scale of 0 to 10, 0 is no effect, 10 is complete control
[7] = Postemergence, Rate 125 g/ha, scale 0 to 10, 0 is no effect, 10 is complete control
[8] = Postemergence, Rate 500 g/ha, scale of 0 to 10 where 0 is no effect and 10 is complete control
[9] = Rate 250 g/ha, Postemergence, scale of 0 to 10 where 0 is no effect and 10 is complete control

CCN(CC)C(=O)Cn1c(=O)on(C(=O)N(c2ccccc2)C(C)C)c1=O [Compound 571]
Plant response rating, Redroot pigweed (pigweed; [1]): 0
Redroot pigweed plant response rating (pigweed; [2]): 0
Redroot pigweed plant response rating (pigweed; [3]): 0
Redroot pigweed plant response rating (0 to 10 scale) (pigweed; Preemergence, Rate 250 g/ha): 9
Redroot pigweed plant response rating (pigweed; [4]): 9
Plant response rating, Redroot pigweed (pigweed; [5]): 0
Blackgrass plant response rating (blackgrass; [6]): 0
Blackgrass plant response rating (blackgrass; [7]): 0
Plant response rating, Blackgrass (blackgrass; [8]): 0
Blackgrass plant response rating (blackgrass; [2]): 0
Blackgrass plant response rating (blackgrass; [3]): 2
Blackgrass plant response rating (0 to 10 scale) (blackgrass; Preemergence, Rate 250 g/ha): 3
Blackgrass plant response rating (blackgrass; [4]): 9
Plant response rating, Blackgrass (blackgrass; [9]): 0
Nutsedge plant response rating (purple nutsedge; [6]): 0
Nutsedge plant response rating (purple nutsedge; [7]): 0
Plant response rating, Nutsedge (purple nutsedge; [8]): 0
Nutsedge plant response rating (purple nutsedge; [2]): 0
Nutsedge plant response rating (purple nutsedge; [3]): 0
Nutsedge plant response rating (0 to 10 scale) (purple nutsedge; Preemergence, Rate 250 g/ha): 0
Nutsedge plant response rating (purple nutsedge; [4]): 0
Plant response rating, Nutsedge (purple nutsedge; [9]): 0
Plant response rating, Soybean (soybean; [1]): 4
Soybean plant response rating (soybean; [2]): 0
Soybean plant response rating (soybean; [3]): 0
Soybean plant response rating (0 to 10 scale) (soybean; Preemergence, Rate 250 g/ha): 0
Soybean plant response rating (soybean; [4]): 3
Plant response rating, Soybean (soybean; [5]): 2
Corn plant response rating (corn; [6]): 0
Corn plant response rating (corn; [7]): 0
Plant response rating, Corn (corn; [8]): 0
Corn plant response rating (corn; [2]): 0
Corn plant response rating (corn; [3]): 0
Corn plant response rating (0 to 10 scale) (corn; Preemergence, Rate 250 g/ha): 0
Corn plant response rating (corn; [4]): 0
Plant response rating, Corn (corn; [9]): 0
Giant foxtail plant response rating (giant foxtail; [6]): 0
Giant foxtail plant response rating (giant foxtail; [7]): 0
Plant response rating, Giant foxtail (giant foxtail; [8]): 3
Giant foxtail plant response rating (giant foxtail; [2]): 3
Giant foxtail plant response rating (giant foxtail; [3]): 3
Giant foxtail plant response rating (0 to 10 scale) (giant foxtail; Preemergence, Rate 250 g/ha): 9
Giant foxtail plant response rating (giant foxtail; [4]): 9
Plant response rating, Giant foxtail (giant foxtail; [9]): 2
Plant response rating, Wild oats (wild oat; [1]): 0
Wild oats plant response rating (wild oat; [2]): 0
Wild oats plant response rating (wild oat; [3]): 0
Wild oats plant response rating (0 to 10 scale) (wild oat; Preemergence, Rate 250 g/ha): 3
Wild oats plant response rating (wild oat; [4]): 7
Plant response rating, Wild oats (wild oat; [5]): 0
B. signalgrass plant response rating (surinam grass; [6]): 0
B. signalgrass plant response rating (surinam grass; [7]): 0
Plant response rating, B. signalgrass (surinam grass; [8]): 5
B. signalgrass plant response rating (surinam grass; [2]): 0
B. signalgrass plant response rating (surinam grass; [3]): 3
B. signalgrass plant response rating (0 to 10 scale, 0 is no effect, 10 is complete control) (surinam grass; Preemergence, Rate 250 g/ha): 3
B. signalgrass plant response rating (surinam grass; [4]): 9
Plant response rating, B. signalgrass (surinam grass; [9]): 0
Rape plant response rating (rape; [6]): 0
Rape plant response rating (rape; [7]): 0
Plant response rating, Rape (rape; [8]): 0
Rape plant response rating (rape; [2]): 0
Rape plant response rating (rape; [3]): 0
Rape plant response rating (0 to 10 scale) (rape; Preemergence, Rate 250 g/ha): 0
Rape plant response rating (rape; [4]): 2
Plant response rating, Rape (rape; [9]): 0
Crabgrass plant response rating (crabgrass; [6]): 0
Crabgrass plant response rating (crabgrass; [7]): 0
Plant response rating, Crabgrass (crabgrass; [8]): 3
Crabgrass plant response rating (crabgrass; [2]): 2
Crabgrass plant response rating (crabgrass; [3]): 2
Crabgrass plant response rating (0 to 10 scale) (crabgrass; Preemergence, Rate 250 g/ha): 3
Crabgrass plant response rating (crabgrass; [4]): 3
Plant response rating, Sugarbeets (sugar beet; [1]): 0
Sugarbeets plant response rating (sugar beet; [2]): 0
Sugarbeets plant response rating (sugar beet; [3]): 0
Sugarbeets plant response rating (0 to 10 scale) (sugar beet; Preemergence, Rate 250 g/ha): 0
Sugarbeets plant response rating (sugar beet; [4]): 0
Plant response rating, Sugarbeets (sugar beet; [5]): 0
Cocklebur plant response rating (cocklebur; [6]): 0
Cocklebur plant response rating (cocklebur; [7]): 0
Plant response rating, Cocklebur (cocklebur; [8]): 0
Cocklebur plant response rating (cocklebur; [2]): 0
Cocklebur plant response rating (cocklebur; [3]): 0
Cocklebur plant response rating (0 to 10 scale) (cocklebur; Preemergence, Rate 250 g/ha): 0
Cocklebur plant response rating (cocklebur; [4]): 0
Plant response rating, Cocklebur (cocklebur; [9]): 0
Bedstraw plant response rating (bedstraw; Rate 62 g/ha, scale 0 to 10 (0 no effect, 10 complete control)): 0
Bedstraw plant response rating (bedstraw; Rate 125 g/ha, scale 0 to 10, 0 is no effect, 10 is complete control): 0
Bedstraw plant response rating (0 to 10 scale) (bedstraw; Rate 250 g/ha): 0
Bedstraw plant response rating (bedstraw; [1]): 0
Morningglory plant response rating (morningglory; [6]): 4
Morningglory plant response rating (morningglory; [7]): 10
Plant response rating, Morningglory (morningglory; [8]): 10
Morningglory plant response rating (morningglory; [2]): 0
Morningglory plant response rating (morningglory; [3]): 0
Morningglory plant response rating (0 to 10 scale) (morningglory; Preemergence, Rate 250 g/ha): 2
Morningglory plant response rating (morningglory; [4]): 4
Plant response rating, Morningglory (morningglory; [9]): 10
Plant response rating, Velvetleaf (velvetleaf; [1]): 0
Velvetleaf plant response rating (velvetleaf; [2]): 0
Velvetleaf plant response rating (velvetleaf; [3]): 0
Velvetleaf plant response rating (0 to 10 scale) (velvetleaf; Preemergence, Rate 250 g/ha): 0
Velvetleaf plant response rating (velvetleaf; [4]): 0
Plant response rating, Velvetleaf (velvetleaf; [5]): 0
Plant response rating, Wheat (wheat; [1]): 0
Wheat plant response rating (wheat; [2]): 0
Wheat plant response rating (wheat; [3]): 3
Wheat plant response rating (0 to 10 scale) (wheat; Preemergence, Rate 250 g/ha): 3
Wheat plant response rating (wheat; [4]): 9
Plant response rating, Wheat (wheat; [5]): 0
